The source made the active and inactive calls.
Key:
[1] = blockers of CRF-binding protein–CRF-R2 complex – cell-based, uHTS hits, 384-well, dose response (AID 651639); assay type: functional, Homo sapiens; details: read-out: IC50_Mean
[2] = molecular target: T1, Corticotropin-releasing factor receptor 2/Corticotropin-releasing factor-binding protein (Homo sapiens, UniProt P24387+Q13324); test: Dose Response confirmation of uHTS hits for small molecule antagonists of the CRF-binding protein and CRF-R2 receptor complex.; assay type: functional; details: read-out: IC50_Mean
T1 sequence (Q13324 whole entry): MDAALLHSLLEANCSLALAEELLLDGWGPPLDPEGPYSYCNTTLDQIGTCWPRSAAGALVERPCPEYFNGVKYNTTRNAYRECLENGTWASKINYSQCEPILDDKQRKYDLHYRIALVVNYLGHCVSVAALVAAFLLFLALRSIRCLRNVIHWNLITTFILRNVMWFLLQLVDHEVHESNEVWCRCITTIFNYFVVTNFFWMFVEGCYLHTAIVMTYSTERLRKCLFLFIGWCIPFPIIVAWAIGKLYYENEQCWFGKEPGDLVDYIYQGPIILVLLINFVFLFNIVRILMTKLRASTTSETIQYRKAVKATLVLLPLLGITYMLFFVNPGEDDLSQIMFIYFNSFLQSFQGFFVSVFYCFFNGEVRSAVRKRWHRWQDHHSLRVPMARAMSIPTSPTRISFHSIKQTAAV
T1 sequence (P24387 whole entry): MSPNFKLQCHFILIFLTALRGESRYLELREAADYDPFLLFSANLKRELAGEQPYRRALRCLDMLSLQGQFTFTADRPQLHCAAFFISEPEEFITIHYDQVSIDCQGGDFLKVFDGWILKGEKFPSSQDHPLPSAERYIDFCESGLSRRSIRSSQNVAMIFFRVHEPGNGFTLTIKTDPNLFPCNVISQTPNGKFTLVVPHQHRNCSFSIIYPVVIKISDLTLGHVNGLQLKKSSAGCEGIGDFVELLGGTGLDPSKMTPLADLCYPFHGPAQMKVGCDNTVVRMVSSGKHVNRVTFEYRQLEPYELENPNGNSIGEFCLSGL

[3] = molecular target: T1, Corticotropin-releasing factor receptor 2/Corticotropin-releasing factor-binding protein; test: activators of CRF receptor 2 with binding protein – uHTS hits, confirmation (AID 602473); assay type: functional; details: read-out: EC50_Mean
Beta-lactamase [4] = molecular target: Beta-lactamase (Pseudomonas aeruginosa, UniProt Q79MP6);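 also: biochemical dose-response test of metallo-beta-lactamase enzyme inhibition, read out by epi-absorbance; purified recombinant IMP-1 metallo-beta-lactamase with nitrocefin as substrate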
Chain of Beta-lactamase (Pseudomonas aeruginosa, UniProt Q79MP6) (Q79MP6 whole entry): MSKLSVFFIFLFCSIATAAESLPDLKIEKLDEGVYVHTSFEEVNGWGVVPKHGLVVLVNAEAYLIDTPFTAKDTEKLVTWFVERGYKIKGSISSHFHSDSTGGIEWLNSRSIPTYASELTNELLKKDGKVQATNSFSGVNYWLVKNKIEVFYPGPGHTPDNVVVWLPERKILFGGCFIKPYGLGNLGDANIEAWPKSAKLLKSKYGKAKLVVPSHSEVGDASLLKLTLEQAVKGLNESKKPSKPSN

[5] = molecular target: T2, Calpain-2 catalytic subunit (Sus scrofa, UniProt P43367); test: m-calpain protease blockers, concentration series – biochemical, fluorogenic peptide substrate, dose response (AID 1420); assay type: functional
T2 sequence (P43367 whole entry): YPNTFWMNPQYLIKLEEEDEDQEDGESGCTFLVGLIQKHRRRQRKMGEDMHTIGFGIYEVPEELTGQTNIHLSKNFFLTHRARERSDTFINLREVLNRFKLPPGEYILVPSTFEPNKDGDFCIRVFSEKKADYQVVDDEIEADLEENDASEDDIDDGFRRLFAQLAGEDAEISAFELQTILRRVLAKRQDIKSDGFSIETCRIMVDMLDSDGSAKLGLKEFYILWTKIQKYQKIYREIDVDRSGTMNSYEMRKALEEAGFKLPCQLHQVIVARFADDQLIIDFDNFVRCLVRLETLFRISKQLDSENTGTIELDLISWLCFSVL

Beta-lactamase [6] = molecular target: Beta-lactamase (Salmonella choleraesuis (strain SC-B67), UniProt Q5J463)
Chain of Beta-lactamase (Salmonella choleraesuis (strain SC-B67), UniProt Q5J463) (Q5J463 whole entry): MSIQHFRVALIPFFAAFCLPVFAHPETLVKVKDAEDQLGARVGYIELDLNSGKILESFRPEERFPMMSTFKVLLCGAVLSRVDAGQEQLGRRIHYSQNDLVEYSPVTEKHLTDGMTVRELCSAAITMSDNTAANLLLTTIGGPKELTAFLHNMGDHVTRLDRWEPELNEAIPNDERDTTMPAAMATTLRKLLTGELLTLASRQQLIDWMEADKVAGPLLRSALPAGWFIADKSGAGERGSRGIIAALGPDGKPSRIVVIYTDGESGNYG

Protein S100-A4 = Protein S100-A4 (Homo sapiens, UniProt P26447); test: human S100A4 peptide interaction inhibition curves – biochemical, fluorescence polarization, cherry-picked hits, dose response (AID 687001); assay type: functional
Chain of Protein S100-A4 (P26447 whole entry): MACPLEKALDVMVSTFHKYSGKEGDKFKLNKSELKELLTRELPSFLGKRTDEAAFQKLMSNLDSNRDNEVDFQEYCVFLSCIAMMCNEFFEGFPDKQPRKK

ORF 73 = molecular target: T3, ORF 73 (Human herpesvirus 8, UniProt O40947); test: KSHV LANA DNA-binding disruption – biochemical, fluorescence polarization, cherry-picked samples, dose response (AID 504725); design: species or system Human gammaherpesvirus 8;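 also: fluorescence polarization of a labeled DNA duplex reporting LANA DNA binding; potency is for inhibitors that block LANA binding to the DNA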
T3 sequence (O40947 whole entry): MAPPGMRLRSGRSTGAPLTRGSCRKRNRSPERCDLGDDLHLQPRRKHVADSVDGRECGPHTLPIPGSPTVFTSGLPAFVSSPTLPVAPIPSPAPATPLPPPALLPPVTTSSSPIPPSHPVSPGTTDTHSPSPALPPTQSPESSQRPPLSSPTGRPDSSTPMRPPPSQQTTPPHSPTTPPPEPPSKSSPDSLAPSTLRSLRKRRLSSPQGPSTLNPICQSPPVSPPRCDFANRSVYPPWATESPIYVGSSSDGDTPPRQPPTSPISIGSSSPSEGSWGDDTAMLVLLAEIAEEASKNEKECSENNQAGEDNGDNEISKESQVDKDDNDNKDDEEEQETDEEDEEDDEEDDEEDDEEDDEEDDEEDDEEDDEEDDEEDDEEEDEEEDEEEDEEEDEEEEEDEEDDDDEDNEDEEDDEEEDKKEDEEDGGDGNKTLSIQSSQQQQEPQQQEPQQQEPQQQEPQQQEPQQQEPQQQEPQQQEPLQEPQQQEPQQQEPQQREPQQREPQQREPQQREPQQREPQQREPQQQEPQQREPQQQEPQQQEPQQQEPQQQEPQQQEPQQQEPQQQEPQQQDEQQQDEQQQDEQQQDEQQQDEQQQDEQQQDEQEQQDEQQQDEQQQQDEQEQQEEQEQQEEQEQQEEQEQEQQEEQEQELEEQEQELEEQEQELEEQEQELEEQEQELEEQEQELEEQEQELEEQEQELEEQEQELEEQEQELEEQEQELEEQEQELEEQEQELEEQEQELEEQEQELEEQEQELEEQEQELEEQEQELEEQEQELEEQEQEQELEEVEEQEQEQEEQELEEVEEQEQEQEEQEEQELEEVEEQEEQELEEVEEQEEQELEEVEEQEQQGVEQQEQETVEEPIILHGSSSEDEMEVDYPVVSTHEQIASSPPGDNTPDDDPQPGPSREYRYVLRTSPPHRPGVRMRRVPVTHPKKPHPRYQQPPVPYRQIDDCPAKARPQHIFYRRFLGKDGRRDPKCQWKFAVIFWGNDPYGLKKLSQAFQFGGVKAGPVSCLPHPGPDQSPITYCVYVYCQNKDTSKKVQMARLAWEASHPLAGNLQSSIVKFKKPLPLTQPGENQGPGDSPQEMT

[7] = Counterscreen for […] of the human trace amine associated receptor 1 (TAAR1): Fluorescence-based cell-based high throughput dose response assay to identify nonselective Ga16 agonists.; assay type: functional
[8] = molecular target: T4, Heat shock factor protein 1 (Mus musculus, UniProt P38532); test: decrease of HSF1-responsive luciferase luminescence – cell-based, NIH3T3, dose retest, confirmation (AID 2382); assay type: functional;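 also: NIH3T3 fibroblasts with HSF1-driven luciferase reporter stressed by proteasome inhibitor MG132; luminescence from HSF1-driven luciferase expression after 8 hours of MG132 stress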
T4 sequence (P38532 whole entry): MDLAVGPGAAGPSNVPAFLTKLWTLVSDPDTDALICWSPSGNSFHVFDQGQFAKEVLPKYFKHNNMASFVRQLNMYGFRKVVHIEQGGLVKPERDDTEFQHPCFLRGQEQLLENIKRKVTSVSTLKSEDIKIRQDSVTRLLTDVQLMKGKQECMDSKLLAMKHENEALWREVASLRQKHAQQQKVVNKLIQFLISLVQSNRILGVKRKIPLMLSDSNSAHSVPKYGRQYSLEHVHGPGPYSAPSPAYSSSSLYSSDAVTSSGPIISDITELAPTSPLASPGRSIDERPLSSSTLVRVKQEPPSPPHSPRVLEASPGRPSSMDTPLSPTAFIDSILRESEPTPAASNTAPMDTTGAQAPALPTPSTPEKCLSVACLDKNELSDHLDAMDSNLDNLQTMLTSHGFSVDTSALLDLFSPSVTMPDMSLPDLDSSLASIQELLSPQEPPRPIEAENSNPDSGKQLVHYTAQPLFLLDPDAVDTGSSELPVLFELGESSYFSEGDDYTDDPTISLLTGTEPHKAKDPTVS

[9] = Counterscreen for antagonists of the human trace amine associated receptor 1 (hTAAR1): Fluorescence-based cell-based high throughput dose response assay to identify nonselective Ga16 antagonists.; assay type: functional
[10] = SNU-C1 cell viability reduction, dose response, CellTiter-Glo luminescence (AID 1117323); assay type: functional, cell-based
[11] = molecular target: SWI/SNF-related matrix-associated actin-dependent regulator of chromatin subfamily A member 2 (Homo sapiens, UniProt P51531); test: Luminescence-based cell-based high throughput dose response assay to identify activators of the function of SWI/SNF related, matrix associated, actin dependent regulator of chromatin, subfamily a, member 2 (SMARCA2, BRM).; assay type: functional
Chain of SWI/SNF-related matrix-associated actin-dependent regulator of chromatin subfamily A member 2 (P51531 whole entry): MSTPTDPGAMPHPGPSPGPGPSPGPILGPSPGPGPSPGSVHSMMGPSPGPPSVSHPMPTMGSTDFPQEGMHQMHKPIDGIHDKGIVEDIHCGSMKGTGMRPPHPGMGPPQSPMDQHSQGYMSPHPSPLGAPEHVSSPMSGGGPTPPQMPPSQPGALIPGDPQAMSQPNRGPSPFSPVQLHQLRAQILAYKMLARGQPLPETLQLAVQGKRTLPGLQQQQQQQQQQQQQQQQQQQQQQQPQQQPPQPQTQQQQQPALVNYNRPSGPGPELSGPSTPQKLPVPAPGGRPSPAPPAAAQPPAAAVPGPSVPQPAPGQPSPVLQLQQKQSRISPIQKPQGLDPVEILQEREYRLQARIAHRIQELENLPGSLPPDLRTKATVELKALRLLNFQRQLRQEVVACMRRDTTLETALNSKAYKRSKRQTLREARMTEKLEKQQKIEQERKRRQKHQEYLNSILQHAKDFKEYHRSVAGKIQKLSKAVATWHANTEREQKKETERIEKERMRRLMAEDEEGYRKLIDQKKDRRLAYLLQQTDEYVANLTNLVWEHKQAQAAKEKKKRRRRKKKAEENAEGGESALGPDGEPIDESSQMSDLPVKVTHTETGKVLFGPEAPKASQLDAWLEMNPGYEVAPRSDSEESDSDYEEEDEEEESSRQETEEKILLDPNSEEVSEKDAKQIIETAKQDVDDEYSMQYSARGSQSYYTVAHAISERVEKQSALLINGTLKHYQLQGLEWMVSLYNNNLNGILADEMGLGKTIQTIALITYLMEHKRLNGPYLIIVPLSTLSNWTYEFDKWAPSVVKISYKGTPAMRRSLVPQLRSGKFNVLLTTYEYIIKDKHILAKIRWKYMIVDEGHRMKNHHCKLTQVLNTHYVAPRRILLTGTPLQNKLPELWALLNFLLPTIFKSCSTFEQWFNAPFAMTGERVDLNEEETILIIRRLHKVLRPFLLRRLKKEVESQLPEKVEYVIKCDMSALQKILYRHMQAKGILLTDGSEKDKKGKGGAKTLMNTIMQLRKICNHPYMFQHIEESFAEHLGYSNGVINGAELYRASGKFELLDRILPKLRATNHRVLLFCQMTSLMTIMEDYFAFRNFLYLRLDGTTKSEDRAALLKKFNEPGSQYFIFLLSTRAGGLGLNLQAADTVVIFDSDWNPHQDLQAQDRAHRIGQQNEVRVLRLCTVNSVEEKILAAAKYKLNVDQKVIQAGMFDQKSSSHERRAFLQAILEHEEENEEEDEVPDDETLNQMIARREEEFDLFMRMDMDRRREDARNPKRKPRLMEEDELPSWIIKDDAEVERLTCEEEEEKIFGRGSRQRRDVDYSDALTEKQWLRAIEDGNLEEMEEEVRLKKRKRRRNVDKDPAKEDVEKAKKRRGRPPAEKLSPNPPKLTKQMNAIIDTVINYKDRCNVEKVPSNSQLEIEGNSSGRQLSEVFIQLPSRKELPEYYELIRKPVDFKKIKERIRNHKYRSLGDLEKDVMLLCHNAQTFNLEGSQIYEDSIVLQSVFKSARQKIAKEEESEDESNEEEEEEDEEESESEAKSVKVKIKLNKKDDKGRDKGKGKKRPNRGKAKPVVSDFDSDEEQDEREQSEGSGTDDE

[12] = Counterscreen for activators of the function of SWI/SNF related, matrix associated, actin dependent regulator of chromatin, subfamily a, member 2 (SMARCA2, BRM): Luminescence-based cell-based high throughput dose response assay to identify non-selective compounds using the VP16 reporter assay.; assay type: functional
[13] = rise of 4N DNA cells, HeLa – IC50, dose response (AID 1117351); assay type: functional, cell-based
[14] = rise of 2N DNA cells, HeLa – IC50, dose response (AID 1117349); assay type: functional, cell-based
[15] = loss of viability in HepG2 cells – cell-based, CellTiter-Glo, cherry-picked, cytotoxicity control for Shn3 inhibitor project, dose response (AID 624134); assay type: functional
[16] = cytotoxicity toward HT-29 cells – cell-based, CellTiter-Glo luminescence, IC50, dose response (AID 1117330); assay type: functional
[17] = Reduced DLD-1 viability, concentration-response, CellTiter-Glo luminescence (AID 1117352); assay type: functional
[18] = reduction of Shn3 3'UTR-driven luciferase in osteoblasts – cell-based, Clone20 osteoblasts, firefly luciferase, cherry-picked, dose response (AID 624132); assay type: functional;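 also: firefly luciferase luminescence from reporter carrying the Shn3 3'UTR in osteoblasts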

CCOC(=O)Oc1ccc2c(=O)c(Oc3cccc(C)c3)coc2c1
IC50 [1]: > 20 µM (inactive)
IC50 [2]: 0.61 µM (active)
EC50 [3]: > 53 µM (inactive)

CCOC(=O)C1CCCN(c2ccc([N+](=O)[O-])c3nonc23)C1 (stereo not given)
IC50 (Beta-lactamase [4]): 37.1 µM (inactive)
IC50 [5]: 19 µM (not active)
IC50 (Beta-lactamase [6]): 10.5 µM (inactive)
AC50 (Protein S100-A4): 0.505 µM (active)
AC50 (ORF 73): 4.35 µM (active)

Cc1coc(NC(=O)CSc2nc(-c3ccc(Cl)cc3)cc(C(F)(F)F)c2C#N)n1
EC50 [7]: > 29.9 µM (inactive)
EC50 [8]: > 195 µM (not active)
IC50 [9]: > 29.9 µM (inactive)

CC(C)n1c(/C=C/[C@@H](O)C[C@@H](O)CC(=O)O)c(-c2ccc(F)cc2)c2ccccc21 [FLUVASTATIN SODIUM]
IC50 [10]: > 20 µM (inactive)
EC50 [11]: > 91.1 µM (inactive)
EC50 [12]: > 91.1 µM (inactive)
IC50 [13]: > 10 µM (inactive)
IC50 [14]: > 10 µM (inactive)
AC50 [15]: > 70 µM (inactive)
IC50 [16]: > 20 µM (inactive)
IC50 [17]: > 20 µM (inactive)
AC50 [18]: 2.4 µM (active)
